Measured values published in ChEMBL document CHEMBL5113455, “Discovery of benzyloxyphenyl- and phenethylphenyl-imidazole derivatives as a new class of ante-drug type boosters” (Bioorg Med Chem Lett, 2022).

Tested on: CYP3A4
Experiment: in vitro
Conditions: rat, microsomes

SMILES | inhibition at 10 min, 10 µM [%]
CC(=O)N1CCN(c2ccc(OCC3COC(Cn4ccnc4)(c4ccc(Cl)cc4Cl)O3)cc2)CC1 (centres undefined) [KETOCONAZOLE] | 94.4

Same assay, conditions: rat, rat liver microsomes, probe midazolam

inhibition at 10 min, 10 µM [%] | SMILES
42.6 | CCCOC(=O)c1ccc(COc2ccc(-n3ccnc3)cc2)cc1
10.4 | O=C(OCC(F)(F)F)c1ccc(COc2ccc(-n3ccnc3)cc2)cc1
72 | COC(=O)c1ccc(COc2ccc(-n3ccnc3)cc2)cc1
15.5 | O=C(O)c1ccc(COc2ccc(-n3ccnc3)cc2)cc1
58.4 | CCC(C)COC(=O)c1ccc(COc2ccc(-n3ccnc3)cc2)cc1 (centres undefined)
15.6 | O=C(Oc1ccc(-n2ccnc2)cc1)c1ccc(C(F)(F)F)cc1
16.5 | O=C(Oc1ccc(-n2ccnc2)cc1)c1ccc(Cl)cc1

Second part, the compound before the results:

SMILES | inhibition at 10 min, 10 µM [%]
Nn1nnc2ccccc21 | 80.8
COC(=O)c1ccc(CCc2ccc(-n3ccnc3)cc2)cc1 | 82.8
O=C(O)c1ccc(CCc2ccc(-n3ccnc3)cc2)cc1 | 15.5
OCCOc1ccc(-n2ccnc2)cc1 | 6.7
CC(=O)OCCOc1ccc(-n2ccnc2)cc1 | 34.7
CCCOC(=O)c1ccc(CCc2ccc(-n3ccnc3)cc2)cc1 | 90.4
N#Cc1ccc(COc2ccc(-n3ccnc3)cc2)cc1 | 88.1
CCOC(=O)COc1ccc(-n2ccnc2)cc1 | 12.7
CCOC(=O)c1ccc(CCc2ccc(-n3ccnc3)cc2)cc1 | 74
CC(=O)OCc1ccc(COc2ccc(-n3ccnc3)cc2)cc1 | 87.1
CCCCCCOC(=O)c1ccc(COc2ccc(-n3ccnc3)cc2)cc1 | 72.2
O=C(OCCc1ccccc1)c1ccc(COc2ccc(-n3ccnc3)cc2)cc1 | 61.8
CCCCOC(=O)c1ccc(COc2ccc(-n3ccnc3)cc2)cc1 | 39.9
OCc1ccc(COc2ccc(-n3ccnc3)cc2)cc1 | 84.7
c1ccc(COc2ccc(-n3ccnc3)cc2)cc1 | 82.5

Tested on: not listed separately
Experiment: Drug metabolism in rat liver microsome assessed as metabolite 4-[(4-imidazol-1-ylphenoxy)methyl]benzoic acid formation at 10 uM and measured upto 30 mins by liquid chromatography-tandem mass spectrometry
Type: ADME
Conditions: microsomes, 0.5 h

Drug metabolism | SMILES
Metabolite_Detected | COC(=O)c1ccc(COc2ccc(-n3ccnc3)cc2)cc1
